Experimental data from patent US11230541B2, “Heterocyclic compound” (Takeda Pharmaceutical Company Limited, priority 2017, dated 2022).
Counter-ions that a name gives are not always drawn.

biological target: T1, NMDA receptor composed of four subunits including 2 sets of heterodimers of NR1 and NR2B (Homo sapiens, UniProt Q13224); experiment: NR2B Ca2+ influx assay (FLIPR, Fluo-4) in HEK293 cells expressing human GRIN1 and GRIN2B; format: cell-based; settings: HEK293, 10 μM final compound concentration, glutamic acid/glycine-induced Ca2+ influx, read-out: inhibitory rate (10 μM compound concentration)
T1 construct: host or cells: HEK293 (tetracycline-induced expression)
Method in brief: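 Tetracycline-induced (2 h) HEK293 cells expressing human GRIN1/GRIN2B, Fluo-4-loaded, were preincubated 15 min at room temperature with compound at 10 μM final. FLIPR recorded Ca2+ influx every 3 s for 5 min after glutamate/glycine addition (30 μM in added buffer); inhibition from cumulative fluorescence relative to agonist-free wells.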

T1 sequence (Q13224 27-1484, other chains not shown): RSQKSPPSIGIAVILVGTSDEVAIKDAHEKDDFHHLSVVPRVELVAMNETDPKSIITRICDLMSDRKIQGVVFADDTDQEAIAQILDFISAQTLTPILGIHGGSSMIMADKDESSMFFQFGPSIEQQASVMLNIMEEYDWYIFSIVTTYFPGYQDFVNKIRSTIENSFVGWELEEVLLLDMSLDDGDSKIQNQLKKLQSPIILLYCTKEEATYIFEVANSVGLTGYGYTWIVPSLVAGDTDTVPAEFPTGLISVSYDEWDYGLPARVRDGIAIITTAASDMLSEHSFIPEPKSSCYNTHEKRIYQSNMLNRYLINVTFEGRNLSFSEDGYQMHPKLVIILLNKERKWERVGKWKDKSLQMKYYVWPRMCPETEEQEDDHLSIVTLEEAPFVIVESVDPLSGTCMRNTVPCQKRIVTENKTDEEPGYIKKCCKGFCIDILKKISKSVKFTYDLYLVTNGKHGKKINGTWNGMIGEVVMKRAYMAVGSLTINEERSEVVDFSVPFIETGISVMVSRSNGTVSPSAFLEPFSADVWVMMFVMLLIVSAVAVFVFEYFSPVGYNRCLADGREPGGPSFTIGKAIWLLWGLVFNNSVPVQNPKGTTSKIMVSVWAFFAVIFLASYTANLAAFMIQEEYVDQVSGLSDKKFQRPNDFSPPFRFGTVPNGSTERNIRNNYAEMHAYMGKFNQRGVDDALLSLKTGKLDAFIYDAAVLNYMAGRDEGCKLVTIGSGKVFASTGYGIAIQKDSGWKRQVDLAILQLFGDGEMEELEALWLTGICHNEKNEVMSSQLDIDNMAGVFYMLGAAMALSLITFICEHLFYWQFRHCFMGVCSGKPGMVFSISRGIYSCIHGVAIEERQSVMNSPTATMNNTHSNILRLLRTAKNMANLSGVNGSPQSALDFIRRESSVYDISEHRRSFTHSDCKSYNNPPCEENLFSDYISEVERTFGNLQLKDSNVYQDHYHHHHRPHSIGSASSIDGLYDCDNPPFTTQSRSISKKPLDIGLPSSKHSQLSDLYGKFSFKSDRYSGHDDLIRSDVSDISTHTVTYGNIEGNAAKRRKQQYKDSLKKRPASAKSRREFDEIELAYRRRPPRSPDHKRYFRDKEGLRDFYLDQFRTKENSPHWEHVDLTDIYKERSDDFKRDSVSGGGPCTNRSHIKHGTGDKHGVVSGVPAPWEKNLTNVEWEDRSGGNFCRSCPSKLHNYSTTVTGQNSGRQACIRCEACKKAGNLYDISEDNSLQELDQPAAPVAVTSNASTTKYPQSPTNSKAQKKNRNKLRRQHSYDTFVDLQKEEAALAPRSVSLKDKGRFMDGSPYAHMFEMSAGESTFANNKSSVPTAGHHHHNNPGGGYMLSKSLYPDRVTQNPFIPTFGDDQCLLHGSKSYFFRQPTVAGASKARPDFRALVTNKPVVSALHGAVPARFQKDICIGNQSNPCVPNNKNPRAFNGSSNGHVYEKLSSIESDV

Row | SMILES | inhibition at 10 µM [%]
1 | COc1ccc(C(=O)NCc2c(C)ccc3ncn(C)c23)cc1F [Example 129, N-((1,6-dimethyl-1H-benzimidazol-7-yl)methyl)-3-fluoro-4-methoxybenzamide] | 88
2 | CCc1ccc2ncn(C)c2c1CNC(=O)c1ccc(OC)c(F)c1 [Example 130, N-((6-ethyl-1-methyl-1H-benzimidazol-7-yl)methyl)-3-fluoro-4-methoxybenzamide] | 91
3 | CCc1ccc2ncn(C)c2c1CNC(=O)c1cc(F)c(OC(F)F)c(F)c1 [Example 131, 4-(difluoromethoxy)-N-((6-ethyl-1-methyl-1H-benzimidazol-7-yl)methyl)-3,5-difluorobenzamide] | 93
4 | CCc1ccc2ncn(C)c2c1CNC(=O)c1csc(C(F)F)c1 [Example 132, 5-(difluoromethyl)-N-((6-ethyl-1-methyl-1H-benzimidazol-7-yl)methyl)thiophene-3-carboxamide] | 90
5 | CCc1ccc2ncn(C)c2c1CNC(=O)c1ccc(C(F)F)cc1 [Example 133, 4-(difluoromethyl)-N-((6-ethyl-1-methyl-1H-benzimidazol-7-yl)methyl)benzamide] | 91
6 | Cc1ccc2ncn(C)c2c1CNC(=O)c1cnc(OC(F)F)c(F)c1 [Example 134, 6-(Difluoromethoxy)-N-((1,6-dimethyl-1H-benzimidazol-7-yl)methyl)-5-fluoronicotinamide] | 90
7 | Cc1ccc2ncn(C)c2c1CNC(=O)c1ccc(OC(F)F)cc1 [Example 135, 4-(difluoromethoxy)-N-((1,6-dimethyl-1H-benzimidazol-7-yl)methyl)benzamide] | 90
8 | Cc1ccc2ncn(C)c2c1CNC(=O)c1ccc(C(F)F)c(F)c1 [Example 136, 4-(difluoromethyl)-N-((1,6-dimethyl-1H-benzimidazol-7-yl)methyl)-3-fluorobenzamide] | 83
9 | Cc1ccc2ncn(C)c2c1CNC(=O)c1ccc(C(F)F)s1 [Example 137, 5-(difluoromethyl) -N-((1,6-dimethyl-1H-benzimidazol-7-yl)methyl)thiophene-2-carboxamide] | 72
10 | Cc1ccc2ncn(C)c2c1CNC(=O)c1ccc(OC(F)(F)F)nc1 [Example 138, N-((1,6-dimethyl-1H-benzimidazol-7-yl)methyl)-6-(trifluoromethoxy)-nicotinamide] | 88
11 | COc1ccc2ncn(C)c2c1CNC(=O)c1csc(C(F)(F)F)c1 [Example 139, N-((6-methoxy-1-methyl-1H-benzimidazol-7-yl)methyl)-5-(trifluoromethyl)thiophene-3-carboxamide] | 91
12 | CCOc1ccc2ncn(C)c2c1CNC(=O)c1ccc(C(F)F)cc1 [Example 140, 4-(difluoromethyl)-N-((6-ethoxy-1-methyl-1H-benzimidazol-7-yl)methyl)benzamide] | 90
13 | CCOc1ccc2ncn(C)c2c1CNC(=O)c1ccc(C(F)F)c(F)c1 [Example 141, 4-(difluoromethyl)-N-((6-ethoxy-1-methyl-1H-benzimidazol-7-yl)methyl)-3-fluorobenzamide] | 90
14 | Cc1ccc2ncn(C)c2c1CNC(=O)c1csc(C(F)F)c1 [Example 142, 5-(difluoromethyl)-N-((1,6-dimethyl-1H-benzimidazol-7-yl)methyl)thiophene-3-carboxamide] | 85
15 | CCc1ccc2ncn(C)c2c1CNC(=O)c1cnc(OC(F)F)c(F)c1 [Example 143, 6-(difluoromethoxy)-N-((6-ethyl-1-methyl-1H-benzimidazol-7-yl)methyl)-5-fluoronicotinamide] | 91
16 | Cc1ccc2ncn(C)c2c1CNC(=O)c1csc(C2CC2)c1 [Example 144, 5-cyclopropyl-N-((1,6-dimethyl-1H-benzimidazol-7-yl)methyl)thiophene-3-carboxamide] | 90
17 | CCc1ccc2ncn(C)c2c1CNC(=O)c1ccc(OC)cc1 [Example 145, N-((6-ethyl-1-methyl-1H-benzimidazol-7-yl)methyl)-4-methoxybenzamide] | 92
18 | CCc1ccc2ncn(C)c2c1CNC(=O)c1ccc(C(F)F)c(F)c1 [Example 146, 4-(difluoromethyl)-N-((6-ethyl-1-methyl-1H-benzimidazol-7-yl)methyl)-3-fluorobenzamide] | 90
19 | CCc1ccc2ncn(C)c2c1CNC(=O)c1csc(Cl)c1 [Example 147, 5-chloro-N-((6-ethyl-1-methyl-1H-benzimidazol-7-yl)methyl)thiophene-3-carboxamide] | 92
20 | CCc1ccc2ncn(C)c2c1CNC(=O)c1ccc(OC(F)F)cc1 [Example 148, 4-(difluoromethoxy)-N-((6-ethyl-1-methyl-1H-benzimidazol-7-yl)methyl)benzamide] | 91
21 | CCc1ccc2ncn(C)c2c1CNC(=O)c1ccc(OC(F)(F)F)nc1 [Example 149, N-((6-ethyl-1-methyl-1H-benzimidazol-7-yl)methyl)-6-(trifluoromethoxy)-nicotinamide] | 93

Row | SMILES | inhibition at 10 µM [%]
22 | CCn1cnc2ccc(OC)c(CNC(=O)c3cnc(OC)c(F)c3)c21 [Example 150, N-((1-ethyl-6-methoxy-1H-benzimidazol-7-yl)methyl)-5-fluoro-6-methoxynicotinamide] | 60
23 | CCn1cnc2ccc(OC)c(CNC(=O)c3cc(F)c(OC)c(F)c3)c21 [Example 151, N-((1-ethyl-6-methoxy-1H-benzimidazol-7-yl)methyl)-3,5-difluoro-4-methoxybenzamide] | 83
24 | Cc1ccc2ncn(C)c2c1CNC(=O)c1ccc(OC(F)(F)F)cc1 [Example 152, N-((1,6-dimethyl-1H-benzimidazol-7-yl)methyl)-4-(trifluoromethoxy)benzamide] | 91
25 | O=C(NCc1c(C2CC2)ccc2[nH]ncc12)c1cc(F)c(OC(F)F)c(F)c1 [Example 153, N-((5-cyclopropyl-1H-indazol-4-yl)methyl)-4-(difluoromethoxy)-3,5-difluorobenzamide] | 90
26 | O=C(NCc1c(C2CC2)ccc2[nH]ncc12)c1csc(C(F)F)c1 [Example 154, N-((5-cyclopropyl-1H-indazol-4-yl)methyl)-5-(difluoromethyl)-thiophene-3-carboxamide] | 91
27 | O=C(NCc1c(C2CC2)ccc2[nH]ncc12)c1ccc(C(F)F)s1 [Example 155, N-((5-cyclopropyl-1H-indazol-4-yl)methyl)-5-(difluoromethyl)-thiophene-2-carboxamide] | 92
28 | Cc1ccc2ncn(C)c2c1CNC(=O)c1csc(Cl)c1 [Example 156, 5-chloro-N-((1,6-dimethyl-1H-benzimidazol-7-yl)methyl)thiophene-3-carboxamide] | 76
29 | Cc1ccc2ncn(C)c2c1CNC(=O)c1ccc(C(F)F)cc1 [Example 157, 4-(difluoromethyl)-N-((1,6-dimethyl-1H-benzimidazol-7-yl)methyl)benzamide] | 85
30 | Cc1ccc2ncn(C)c2c1CNC(=O)c1cc(F)c(OC(F)F)c(F)c1 [Example 158, 4-(difluoromethoxy)-N-((1,6-dimethyl-1H-benzimidazol-7-yl)methyl)-3,5-difluorobenzamide] | 89
31 | Cc1ccc2ncn(C)c2c1CNC(=O)c1ccc(OC(F)F)nc1 [Example 159, 6-(difluoromethoxy)-N-((1,6-dimethyl-1H-benzimidazol-7-yl)methyl)nicotinamide] | 86
32 | COc1c(F)cc(C(=O)NCc2cccc3ncn(C)c23)cc1F [Example 160, 3,5-difluoro-4-methoxy-N-((1-methyl-1H-benzimidazol-7-yl)methyl)benzamide] | 65
33 | COc1ccc2ncn(C)c2c1CNC(=O)c1cc(F)c(OC(F)F)c(F)c1 [Example 161, 4-(difluoromethoxy)-3,5-difluoro-N-((6-methoxy-1-methyl-1H-benzimidazol-7-yl)methyl)benzamide] | 92
34 | COc1ccc2ncn(C)c2c1CNC(=O)c1ccc(C(F)(F)F)s1 [Example 162, N-((6-methoxy-1-methyl-1H-benzimidazol-7-yl)methyl)-5-(trifluoromethyl)-thiophene-2-carboxamide hydrochloride] | 92
35 | Cc1ccc2ncn(C)c2c1CNC(=O)c1csc(C(F)(F)F)c1 [Example 163, N-((1,6-dimethyl-1H-benzimidazol-7-yl)methyl)-5-(trifluoromethyl)-thiophene-3-carboxamide] | 89
36 | CCc1ccc2ncn(C)c2c1CNC(=O)c1ccc(OC(F)F)nc1 [Example 164, 6-(difluoromethoxy)-N-((6-ethyl-1-methyl-1H-benzimidazol-7-yl)methyl)nicotinamide] | 92
37 | COc1ncc(C(=O)NCc2c(C3CC3)ccc3[nH]nnc23)cc1F [Example 165, N-((5-cyclopropyl-1H-benzotriazol-4-yl)methyl)-5-fluoro-6-methoxynicotinamide] | 91
38 | O=C(NCc1cccc2[nH]ncc12)c1csc(Cl)c1 [Example 166, 5-chloro-N-(1H-indazol-4-ylmethyl)thiophene-3-carboxamide] | 56
39 | O=C(NCc1cccc2[nH]ncc12)c1ccc(C(F)(F)F)s1 [Example 167, N-(1H-indazol-4-ylmethyl)-5-(trifluoromethyl)-thiophene-2-carboxamide] | 58
40 | O=C(NCc1cccc2[nH]ncc12)c1cc(Cl)c(Cl)s1 [Example 168, 4,5-dichloro-N-(1H-indazol-4-ylmethyl)thiophene-2-carboxamide] | 90
41 | COc1ncc(C(=O)NCc2cccc3[nH]ncc23)cc1Cl [Example 169, 5-chloro-N-(1H-indazol-4-ylmethyl)-6-methoxynicotinamide] | 70
